What was measured:
3T3 = assay: Acute oral toxicity dose LD50 by 3T3 Neutral Red Uptake (NRU) assay (OECD Guidance Document No 129); assay type: cell-based; settings: LD50 calculated from 3T3 NRU assay (OECD GD 129)
Description: The acute oral toxicity dose LD50 was measured by 3T3 Neutral Red Uptake (NRU) assay (OECD Guidance Document No 129). Specifically, LD50 may be calculated by the following method.

[1] = Critical micelle concentration from surface tension at each concentration (Method 5, Du Nouy ring, force tensiometer); assay type: physicochemical; settings: aqueous solutions, measurement repeated three times
Description: A solution comprising the compound comprising quaternary ammonium structure is prepared, and the surface tension of the solution is measured at each concentration. A calibration curve of the surface tension at each concentration is obtained, and the critical micelle concentration of the compound comprising the quaternary ammonium structure is obtained therefrom.
In this case, the surface tension at each concentration may be measured using a surface tension meter (force tensiometer) and a Du Nouy ring method.
In addition, the solution may use a solvent such as distilled water, but the solvent is not limited thereto.
The critical micelle concentrations of Monomers 2 and 3 and Comparative Monomer 2 were measured by Method 5, and are shown in the following Table 4 and FIGS. 4 to 6. More specifically, aqueous solutions (30 mL) were prepared for each concentration of Monomers 2 and 3 and Comparative Monomer 2, and the surface tension was measured using the Du Nouyring method of a force tensiometer. Each measurement was repeated three times. The surface tension was measured by preparing diluted solutions until the surface tension was similar to deionized water. The critical micelle concentration (CMC) was confirmed by confirming through the change in surface tension with concentration that each aqueous solution formed a micelle.

C=CC(=O)OCC[N+](CCCC)(CCCC)CCCCCC [Comparative Monomer 1, reference compound]
Acute oral toxicity dose (mg/Kg) LD50 (3T3): 2,355 mg/Kg

C=CC(=O)OCC[N+](CCCCCCCCCCCCCC)(CCCCCCCCCCCCCC)CCCCCCCCCCCCCC [Comparative Monomer 2, reference compound]
Acute oral toxicity dose (mg/Kg) LD50 (3T3): 231 mg/kg
Critical micelle concentration (wt %) [1]: 0.06 ± 0.01 wt %

C=CC(=O)OCC[N+](CCCC)(CCCC)CCCCCCCCCC [Monomer 2]
Critical micelle concentration (wt %) [1]: 1.5 ± 0.3 wt %

C=CC(=O)OCC[N+](CCCC)(CCCC)CCCCCCCCCCCC [Monomer 3]
Acute oral toxicity dose (mg/Kg) LD50 (3T3): 843 mg/kg
Critical micelle concentration (wt %) [1]: 0.25 ± 0.05 wt %

C=C(C)C(=O)OCC[N+](CCCC)(CCCCCCCC)CCCCCCCCCC (centres unmarked) [Monomer 7]
Acute oral toxicity dose (mg/Kg) LD50 (3T3): 998 mg/kg

C=C(C)C(=O)OCC[N+](CCCC)(CCCCCCCCCC)CCCCCCCCCC [Monomer 8]
Acute oral toxicity dose (mg/Kg) LD50 (3T3): 869 mg/kg

From patent US20240108001A1, “Antibacterial Composition” (LG Chem, Ltd., priority 2021, published 2024)
